Data from article PMC4686731, “Screening of Pharmacologically Active Small Molecule Compounds Identifies Antifungal Agents Against Candida Biofilms” (Frontiers in Microbiology, 2015).
In brackets after ≈: the same amount, converted by molar mass. Structures can show the parent of a compound that is named as a salt. Where two headings read alike, the source gives them in different places.

Assays:
[1] = tested on: C. albicans strain SC5314; assay: High-throughput screening (HTS) with antifungal susceptibility test, CellTiter-Glo ATP read-out; format: cell-based, Candida albicans; conditions: for inhibition at 10 µM: Candida albicans, SC5314, 24 h
Protocol: (§1) The in vitro susceptibility of well-characterized wild-type C. albicans strain SC5314, which was provided by Prof. N.A.R. Gow (University of Aberdeen, Aberdeen, UK) was tested against 1280 compounds from the Library of Pharmacologically Active Compounds (LOPAC^1280TM, Sigma–Aldrich, USA). The screen was performed with C. albicans SC5314, and hits were further confirmed with the type strains C. dubliniensis MYA 577, C. glabrata ATCC 2001, C. kusei ATCC 6258, C. palapsilosis ATCC 22019, and C. tropicalis ATCC13803.
High-Throughput Screening was conducted using ASTs, according to the standard Clinical and Laboratory Standard Institute (CLSI) method ([Watamoto et al., 2009]). Inocula from 24-h yeast cultures on Sabouraud’s dextrose agar (SDA) (Gibco, UK) were adjusted to a turbidity equivalent to a 0.5 McFarland standard at 520 nm using a spectrophotometer. The suspension was diluted further with RPMI 1640 medium (Gibco, UK) to yield an inoculum concentration of 0.5 × 10^3 to 2.5 × 10^3 cells/mL. C. albicans was incubated with small-molecule compounds (10 μM) from LOPAC^1280TM, which total volume was 150 μL, in 96-well plates at 37°C for 24 h to evaluate the antifungal effects. After incubation, the viability of the fungal cells was determined using the CellTiter-Glo luminescent cell viability kit (Promega, USA). The CellTiter-Glo reagent (150 μL) was added to the medium and incubated for 15 min at room temperature with shaking at 900 rpm. The luminescent signals were detected using a luminometer (GloMax Discover System, Promega, USA). The resulting signal intensity corresponds to ATP amounts and thus to the number of viable microbial cells upon drug exposure ([Stylianou et al., 2014]). In all 96-well plates, 100 and 0% growth controls were included as microbes plus dimethyl sulfoxide (0.1%) and microbes plus amphotericin B (100 μM), respectively. All assays were performed at least as two biological replicates in triplicate. The ATP level of C. albicans cells, which corresponded to the cell metabolic activity and viability, was calculated for each compound using the following equation (Figure 1A).
Percentageinhibition=100 × 1-{(experimental-positivecontrolaverage)/(negativecontrolaverage-positivecontrolaverage)}
Wells were scored as hits if the percentage inhibition was >50%. Hit compounds were evaluated further to assess their antifungal effects.

C. albicans SC5314 [2] = assay: AST broth microdilution, high cell density planktonic mode; format: cell-based, Candida albicans; conditions: 50% MIC, planktonic mode, 1 × 10^7 cells/mL, 24 h, read-out: Minimum inhibitory concentration (MIC)
Protocol: as §1
(§2) To investigate the antifungal effects of the hit compounds, ASTs were conducted using broth microdilution assays with high cell densities of the planktonic mode, adhesion phase and biofilm mode against Candida strains (C. albicans, C. dubliniensis, C. glabrata, C. kusei, C. palapsilosis, and C. tropicalis). First, high density cell (1 × 10^7 cells/mL) suspensions were added to the RPMI medium containing each hit compound (10–1000 μM) in 96-well plates and incubated at 37°C for 24 h. Next, the 50% minimum inhibitory concentrations (MICs) of high-density Candida planktonic cultures were determined using the CellTiter-Glo luminescent cell viability kit, as described above. The antifungal effects of the hit compounds were also evaluated in the adhesion phase and the biofilm mode, in the same manner as the planktonic mode. Candida biofilms were produced as described previously ([Jin et al., 2004]). In brief, Candida cells were grown on SDA at 37°C for 18 h. A loopful of the yeast culture was then inoculated into yeast nitrogen base (YNB) (Difco, USA) medium supplemented with 50 mM glucose. After overnight broth culture in a rotary shaker at 75 rpm, the cells were washed twice with 20 mL of PBS (pH 7.2, 0.1 M). The yeast cells were re-suspended in YNB supplemented with 100 mM glucose and adjusted to an optical density of 0.38 (1 × 10^7 cells/mL) at 520 nm. This standardized cell suspension was used immediately to form biofilms in the wells of 96-well polystyrene culture plates (Iwaki, Tokyo, Japan). First, the cells were incubated for 90 min at 37°C in a shaker at 75 rpm to allow yeast adherence to the well surface (adhesion phase), before the medium was aspirated and each well was washed once with PBS to remove non-adherent cells. YNB containing 100 mM glucose was then pipetted into each well and the plate was incubated at 37°C in a shaker at 75 rpm for 24 h. Non-adherent cells were removed by pipetting and the biofilms were washed twice with PBS. Following this biofilm growth phase, microscopic examination of the cultures was performed to exclude contamination. These ASTs were repeated on three different occasions.

C. albicans SC5314 [3] = assay: AST, adhesion phase; format: cell-based; conditions: Candida albicans, SC5314, 1.5 h; adhesion phase (90 min adherence); read-out: Minimum inhibitory concentration (MIC)
Protocol: as §1, §2

[4] = tested on: C. albicans SC5314 biofilm; assay: AST, biofilm mode; format: cell-based; conditions: Candida albicans, SC5314; biofilm mode (24 h biofilm); read-out: Minimum inhibitory concentration (MIC)
Protocol: as §1, §2

[5] = compound 10 μM, 0.5 × 10^3 to 2.5 × 10^3 cells/mL, 37°C, 24 h

Q: For CCCCCCCCCCCCCCCC(=O)OC(CC(=O)O)C[N+](C)(C)C.[Cl-] (racemic) [Palmitoyl-DL-carnitine chloride], which “percent inhibition of the metabolic activity (ATP level) of C. albicans” value [1, 5] is on record?
A: 76.0%

Q: For C[C@@H]1[C@H](O)[C@@H](C)/C=C/C=C/C=C/C=C/C=C/C=C/C=C/[C@H](O[C@@H]2O[C@H](C)[C@@H](O)[C@H](N)[C@@H]2O)C[C@@H]2O[C@](O)(C[C@@H](O)C[C@@H](O)[C@H](O)CC[C@@H](O)C[C@@H](O)CC(=O)O[C@H]1C)C[C@H](O)[C@H]2C(=O)O [AMB, amphotericin B], which MIC (C. albicans SC5314 [2]) is on record?
A: 3.9 µM (≈ 3.6 µg/mL)

Q: And the MIC (C. albicans SC5314 [2]; Candida albicans, SC5314, 24 h)?
A: < 3.9 µM

Q: What about the MIC (C. albicans SC5314 [3]) of the same molecule?
A: 15.6 µM (≈ 14.4 µg/mL)

Q: What about the MIC [4] of the same molecule?
A: 62.5 µM (≈ 57.8 µg/mL)

Q: Which inhibition at 10 µM ([1]; compound 10 μM, 0.5 × 10^3 to 2.5 × 10^3 cells/mL, 37°C, 24 h, read-out: percent inhibition of the metabolic activity (ATP level) of C. albicans) does the source give for COc1ccc2c(c[n+](C)c3c4cc5c(cc4ccc23)OCO5)c1OC [Chelerythrine chloride] here?
A: 82.4%

Q: How did the “percent inhibition of the metabolic activity (ATP level) of C. albicans” value [1, 5] turn out when Cc1cc(N)c2ccccc2[n+]1CCCCCCCCCC[n+]1c(C)cc(N)c2ccccc21.O.[Cl-].[Cl-] [Dequalinium chloride hydrate] was run?
A: 71.5%

Q: Which inhibition at 10 µM ([1]; read-out: percent inhibition of the metabolic activity (ATP level) of C. albicans, compound 10 μM, 0.5 × 10^3 to 2.5 × 10^3 cells/mL, 37°C, 24 h) does the source give for CN[C@@H]1C[C@@H](c2ccc(Cl)c(Cl)c2)c2ccccc21 [Indatraline hydrochloride] here?
A: 85.2%
